Non-standard residues stand in square brackets, D forms with d. No end group written: not given here. *: point of attachment. Dnp = O=[N+]([O-])c1ccc(*)c([N+](=O)[O-])c1; 2Abz = Nc1ccccc1C(=O)O

The subject of assay [1] is C4b deposition from MBL-deficient human serum on solid-phase mannan. Kind of assay: Functional complement (C4) deposition assay. It is filed as biochemical. The note with it: for Complement activation capacity (in words): Example 4 titration, 1-100 μg/ml. The method, then:
All quantitation assays were standardised using an international, primary standard pool serum (Statens Serum Institut, Copenhagen, Denmark), containing 3.3 μg MBL/ml serum. For the sandwich ELISA and the C4 deposition assay, a standard curve was made with 1:25, 1:50, 1:75, 1:100, 1:150 and 1:200 dilutions of this serum, tested in triplicate. Standard dilutions for the mannan binding ELISA were 1:25, 1:50, 1:100, 1:150, 1:200, 1:300 and 1:400. Diluents were as detailed below. An in-house secondary control was prepared from pooled normal donor plasma and run in triplicate on each test plate, the results plotted for each run. Results of any test runs, in which values obtained for the in-house control MBL were outside +/−2SD from the previously determined mean value, led to rejection of the whole run. Run to run standard curves were overlayed to ensure a constant slope and thus provide another sensitive means of quality control.
Microtitre plates (as above) were coated overnight at 4° C. with 1 μg/mL mannan (Sigma-Aldrich Pty Ltd, Castle Hill, Australia) in fresh 50 mM carbonate-bicarbonate buffer, pH 9.6. Normal donor plasmas were tested in triplicate, diluted to 1:25 in TBST with 15 mM CaCl2, pH 7.2 which was also the wash buffer. A 1:10 dilution was also tested and interpreted only to confirm low or near absent levels of C4 deposition in donors with low amounts of MBL. After 90 minutes at 22° C., wells were washed 5 times and MBL-deficient human serum (completely deficient in MBL, obtained with informed consent) diluted 1:20 in barbital buffer, […], 10 mM sodium barbitone and 5 mM CaCl2 was added to wells and incubated at 22° C. for 30 minutes to enable complement activation. Wells were washed 5 times and biotinylated rabbit anti-human C4 (Sigma-Aldrich Pty Ltd) biotinylated using Biotin Tag (Sigma-Aldrich Pty Ltd) which was added at 1:1500 in TBST. Following incubation at 22° C. for 90 minutes, wells were washed 5 times and 1:500 ExtrAvidin peroxidase (Sigma-Aldrich Pty Ltd) in TBST was added and incubated at 22° C. for 40 minutes. Colour development and reading was as for the quantitation assays.
1 μl of Statens Serum Institut (SSI) MBL Standard was arbitrarily assigned 1 unit of C4 deposition activity. The assay was standardised against the SSI standard. Between run CV for the assay at 1:25 was 9.4%.
The positive control for MASP-2 activity was MASP containing, affinity-purified MBL complex. All fractions obtained in Example 1 were considered MASP-depleted with MASP activity measured as slope/sec less than 2.3 (range 0.5-2.3). […] Both MASP-depleted fractions and the MBL-MASP complex were titrated to provide MBL protein concentrations at 1 to 100 μg/ml. Fractions were assayed in parallel in the mannan-binding and C4-deposition assays as described in this document. The result from the Mannan-binding assay was plotted against C4 activity for each fraction.
The fractions supplied in Example 3 were pooled according to total protein concentration. […] The two MASP-depleted MBL pools were again titrated in the range of 1-100 μg/ml in parallel with the MBL-MASP complex. All samples were assayed on both the Mannan-binding and C4-deposition assays in parallel. Actual MBL quantification (mannan-binding assay) results were graphed against corresponding C4 activation capability for the fraction.

For assay [2], the system named is MASPs in purified MBL-MASP complex. Nature of the assay: Substrate cleavage assay: kinetic constants of MASP proteolytic activity on synthetic C4-based substrates. In kind it is biochemical. The note with it: proteolytic activity of MASPs in purified MBL-MASP complex on the synthetic substrate; sigmoidal kinetics. The method, then: For quantitative measurements, typically the signal emitted by the label is measured from the beginning of the reaction and the results used to obtain an initial rate. Substrates consisting only of the residues N-terminal to the cleavage site of C4 show normal Michaelis-Menten kinetics for their cleavage by both C1s and the MBL-MASP complex. This means that the dependence of the initial velocity for the cleavage reaction on substrate concentration can be described by a rectangular hyperbola and the constants Km (Michaelis constant which equates to the affinity between enzyme and substrate) and Vmax (maximal velocity of the reaction) can be derived from a non-linear regression fit of the data. […]
The substrate (2Abz-[…]-Lys(Dnp)-NH2) includes the four amino acids before and after the C4 cleavage site and an aminobenzoic acid (Abz) fluorescent group attached to its N-terminal end. […] The change in fluorescence can then be measured and is proportional to the proteolytic activity of the enzyme.
The substrate and enzymes (C1s (10 μg/mL) or purified MBL material) are incubated for several minutes in a fluorescence plate reader set at 37° C. 100 μL of diluted substrate is then transferred into wells containing 100 μL diluted enzyme (C1s or purified MBL material) and the kinetics of fluorescence is measured as follows: excitation=320 nm; emission=420 nm. […]

Take “MASP-depleted Pool 3-7: pool of MASP-depleted MBL fractions 3-7, total protein 85 μg/ml”: the “Complement activation capacity (in words)” value in assay [1] was “reached excess”. For the same substance, the C4 in assay [1] (MBL 1.124 ug/mL, Table 3) worked out at 0.043 U/ul; in assay [1] (MBL 1.677 ug/mL, Table 3), 0.104 U/ul; in assay [1] (MBL 3.905 ug/mL, Table 3), 0.25 U/ul; in assay [1] (MBL 5.617 ug/mL, Table 3), 0.38 U/ul; in assay [1] (MBL 7.151 ug/mL, Table 3) it was 0.506 U/ul; in assay [1] (MBL 7.796 ug/mL, Table 3) it was 0.55 U/ul. The C4 in assay [1] (MBL 9.377 ug/mL, Table 3) was 0.596 U/ul; in assay [1] (MBL 14.045 ug/mL, Table 3), 0.718 U/ul; in assay [1] (MBL 20 ug/mL, Table 3), 0.825 U/ul; in assay [1] (MBL 40 ug/mL, Table 3) it was 0.954 U/ul; in assay [1] (MBL 80 ug/mL, Table 3), “xs”; in assay [1] (MBL 85 ug/mL, Table 3), “xs”.

As to “MASP Pool 8-9: pool of MASP-depleted MBL fractions 8 and 9, total protein 35 μg/ml”, the “Complement activation capacity (in words)” value in assay [1] was “reached the high assay limit”. Further, the C4 in assay [1] (MBL 1.122 ug/mL, Table 3) is 0.049 U/ul; in assay [1] (MBL 2.032 ug/mL, Table 3), 0.108 U/ul; in assay [1] (MBL 4.278 ug/mL, Table 3), 0.189 U/ul; in assay [1] (MBL 6.506 ug/mL, Table 3), 0.31 U/ul; in assay [1] (MBL 7.362 ug/mL, Table 3), 0.403 U/ul; in assay [1] (MBL 8.995 ug/mL, Table 3), 0.435 U/ul. Further, the C4 in assay [1] (MBL 10.205 ug/mL, Table 3) was 0.48 U/ul; in assay [1] (MBL 12.718 ug/mL, Table 3), 0.552 U/ul; in assay [1] (MBL 20 ug/mL, Table 3) it was 0.595 U/ul; in assay [1] (MBL 30 ug/mL, Table 3) it was 0.776 U/ul; in assay [1] (MBL 35 ug/mL, Table 3), 0.969 U/ul.

On to “2Abz-GLQRALEI-Lys(Dnp)-NH2 ([2Abz]GLQRALEIK(Dnp)-NH2; N-terminus assumed; SMILES CC[C@H](C)[C@H](NC(=O)[C@H](CCC(=O)O)NC(=O)[C@H](CC(C)C)NC(=O)[C@H](C)NC(=O)[C@H](CCCNC(=N)N)NC(=O)[C@H](CCC(N)=O)NC(=O)[C@H](CC(C)C)NC(=O)CNC(=O)c1ccccc1N)C(=O)N[C@@H](CCCCNc1ccc([N+](=O)[O-])cc1[N+](=O)[O-])C(N)=O) [C4 (P4-P4′), quenched fluorescent substrate with the four amino acids before and after the C4 cleavage site]”, for which the “Affinity constant K0.5” value in assay [2] came to 6.50 ± 0.32 µM.

Take “MASP-depleted Frac. 5: fraction 5 of purified MASP-depleted MBL from the Example 1 Sephacryl S-300 column, 80 μg/mL”: the C4 came to 0.081 U/ul in assay [1] (MBL 1.32 ug/mL, Table 2); 0.137 U/ul in assay [1] (MBL 2.49 ug/mL, Table 2); 0.304 U/ul in assay [1] (MBL 5.11 ug/mL, Table 2); 0.417 U/ul in assay [1] (MBL 7.83 ug/mL, Table 2); 0.465 U/ul in assay [1] (MBL 8.79 ug/mL, Table 2); 0.671 U/ul in assay [1] (MBL 10 ug/mL, Table 2). The C4 in assay [1] (MBL 12 ug/mL, Table 2) is 0.716 U/ul; in assay [1] (MBL 16 ug/mL, Table 2) it was 0.805 U/ul; in assay [1] (MBL 20 ug/mL, Table 2), 0.762 U/ul; in assay [1] (MBL 30 ug/mL, Table 2), 0.906 U/ul; in assay [1] (MBL 40 ug/mL, Table 2), “xs”; in assay [1] (MBL 80 ug/mL, Table 2) it was “xs”.

With “MASP-depleted Frac. 3: fraction 3 of purified MASP-depleted MBL from the Example 1 Sephacryl S-300 column, 40 μg/mL”, the C4 in assay [1] (MBL 1.02 ug/mL, Table 2) is on record as 0.107 U/ul; in assay [1] (MBL 2.1 ug/mL, Table 2), 0.202 U/ul; in assay [1] (MBL 2.57 ug/mL, Table 2), 0.359 U/ul; in assay [1] (MBL 5.65 ug/mL, Table 2) it was 0.568 U/ul; in assay [1] (MBL 7.97 ug/mL, Table 2), 0.761 U/ul; in assay [1] (MBL 10.53 ug/mL, Table 2), 0.818 U/ul. Also, the C4 entry was “xs” in assay [1] (MBL 12 ug/mL, Table 2); “xs” in assay [1] (MBL 16 ug/mL, Table 2); “xs” in assay [1] (MBL 20 ug/mL, Table 2); “xs” in assay [1] (MBL 30 ug/mL, Table 2); “xs” in assay [1] (MBL 40 ug/mL, Table 2).

These data come from US20050037949A1, “Mannose binding lectin and uses thereof” (priority 2002, published 2005).
